Bounds are passed on as bounds.

For one data set, the system named is YAP-TEAD interaction. As to the kind of experiment: SK-HEP-1 reporter assay (8xTEAD responsive elements driving NanoLuc luciferase). The class given is cell-based. To be noted: Homo sapiens, SK-HEP1, SK-HEP-1 reporter assay. The procedure, abridged:
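Luminescence after NanoGlo addition gave reporter activity, and IC50 values came from duplicate 10-point curves (top final concentration 30 μM, 0.3% DMSO). The cells were SK-HEP-1 with a stably integrated 8×TEAD-driven NanoLuc gene, exposed to compound for 24 h at 37 °C.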

A further data set has as its system SW620 Yap KO cells. As to the kind of experiment: Viability assay in SW620 Yap KO (Yap independent) cells, CyQUANT. It counts as cell-based. To be noted: Homo sapiens, SW-620. Here is the method:
(§1) Viability Assay in NCI-H226 (Yap-Dependent) and SW620 Yap KO (Yap Independent) Cells
(§2) The ability of YAP-TEAD inhibitors to inhibit tumor cell growth was evaluated using two different cell lines: NCI-H226, which is a YAP dependent cell line, and SW620 cells, where YAP and TAZ were knocked out using CRISPR to generate a YAP independent cell line.
(§3) For the assay, cells were treated in duplicates with the test compounds in a 10-point dose, 1:3 dilution steps, with the top concentration starting at 30 μM (final concentration in assay). After a 96 hour incubation at 37° C., 95% rH, and 5% CO2, a cell-permeant DNA-binding dye that stains only healthy cells (CyQUANT®, Promega) was added to the cells, allowing the quantification of cell viability.
(§4) Cell Media: The NCI-H226 cells were cultured in the following media: RPMI 1640, +10% FBS, +1× GlutaMAX, +10 mM HEPES, +0.5% Pen/Strep. The SW620-KO cells were cultured in the following media: DMEM/F-12, +10% FBS, +1× GlutaMAX, +10 mM HEPES, +0.5% Pen/Strep.
(§5) Reagents: The reagents used are listed below:
(§6) Cell culture: The cells were examined using an inverted microscope to check for health, cell density, etc. To dissociate adherent cells, the monolayer of cells was washed once with pre-warmed PBS. After removing the PBS, 3 ml pre-warmed Accutase was added to a F75 flask, dispersed evenly and the flask was allowed to sit in incubator for ˜4-5 minutes.
(§7) When a single cell suspension was obtained, 7 ml of prewarmed growth media was added and resuspended with the cells. The cell suspension was transferred to a sterile 15 ml conical centrifuge tube, and spun for 5 min at 300×g, RT. The supernatant was discarded and the pellet was resuspended in 10 ml of pre-warmed growth media.
(§8) The total cell count was determined, and 20 μl of the desired cell number was added to each well of a 384 well plate using a Multidrop Combi. The plates were then incubated for 24 hours at 37° C., 95% rH, and 5% CO2.
(§9) Compound treatment: 24 hours after seeding, the cells were treated with compounds.
(§10) A 1:333 dilution of compounds, diluted in DMSO, was made to get a final concentration of 0.3% DMSO per well. To transfer the compounds to the assay plate, 120 nl was shot from Labcyte low dead volume plates to the cell plates containing 20 μl media/well with the ECHO 555 liquid handling system.
(§11) After treatment, the cells were fed with 20 μl fresh pre-warmed assay media using a Multidrop combi.
(§12) The assay plates were then incubated for 96 h at 37° C., 95% rH, and 5% CO2.
(§13) 96 h after treatment 30 μl of CyQuant® reagent was added to the assay plates using a Multidrop combi in the dark. The plates were then incubated for 1 hour at 37° C., 95% rH and 5% CO2. Thereafter, the assay plates were removed from the incubator and allowed to equilibrate to RT for 30 min in the dark without lid. Finally, they were measured using an EnVision microplate reader with a FITC bottom read program.

A further data set relates to NCI-H226 cells. The data set is described as follows: Viability assay in NCI-H226 (Yap-dependent) cells, CyQUANT. It counts as cell-based. The settings on record: Homo sapiens. On the procedure: as §1, §2, §3, §4, §5, §6, §7, §8, §9, §10, §11, §12, §13

On to `Cn1cc2c3cc(C(=O)NCc4ccncc4)ccc3n(-c3ccc(C(F)(F)F)cc3)c2n1` [Example 28, 2-methyl-N—[(pyridin-4-yl)methyl]-8-[4-(trifluoromethyl)phenyl]-2H, 8H-pyrazolo[3,4-b]indole-5-carboxamide], for which the melting point – broadly, the temperature of the solid-liquid transition – was 181 to 185 °C. Further, the IC50 – broadly, the midpoint of a concentration-inhibition curve – in the data set with YAP-TEAD interaction is above 10000 nM.

`Cn1cc2c3cc(CNC(=O)CCl)ccc3n(-c3ccc(C(F)(F)F)cc3)c2n1` [Example 24, 2-chloro-N—([2-methyl-8-[4-(trifluoromethyl)phenyl]pyrazolo[3,4-b]indol-5-yl]methyl)acetamide] yielded a melting point of 221 to 222 °C. Also, the IC50 in the data set with SW620 Yap KO cells was in the range of 1000 to 10000 nM. In the data set on YAP-TEAD interaction, this compound had an IC50 of 100 to 10000 nM. For the same compound, the IC50 in the data set on NCI-H226 cells fell in the range of 100 to 1000 nM.

`Cn1cc2c(n1)c1cc(C#N)ccc1n2-c1ccc(C(F)(F)F)cc1` [Example 19, 2-methyl-4-[4-(trifluoromethyl)phenyl]pyrazolo [4,3-b]indole-7-carbonitrile] came in with a melting point of 208 to 210 °C. This compound displayed a half-inhibitory concentration (IC50) in the data set with SW620 Yap KO cells above 30000 nM. In the data set on YAP-TEAD interaction, this compound showed an IC50 above 10000 nM. In the data set with NCI-H226 cells, this compound came in with an IC50 above 10000 nM.

As for `COC(=O)c1ccc2c(c1)c1nn(C)cc1n2-c1ccc(C(F)(F)F)cc1` [Example 16, Methyl 2-methyl-4-[4-(trifluoromethyl)phenyl]pyrazolo[4,3-b]indole-7-carboxylate], the melting point fell in the range of 111 to 112 °C. Moreover, the IC50 with SW620 Yap KO cells lay within 1000 to 10000 nM. Further, the IC50 in the data set on YAP-TEAD interaction lay within 10 to 100 nM. This compound yielded an IC50 in the data set with NCI-H226 cells of 1 to 100 nM.

As for `Cn1cc2c3cc(C(=O)O[C@@H]4O[C@H](C(=O)O)[C@@H](O)[C@H](O)[C@H]4O)ccc3n(-c3ccc(C(F)(F)F)cc3)c2n1` [Example 30, (2S,3S,4S,5R,6S)-3,4,5-trihydroxy-6-{2-methyl-8-[4-(trifluoromethyl)phenyl]-2H,8H-pyrazolo[3,4-b]indole-5-carbonyloxy}oxane-2-carboxylic acid], the melting point was 110 to 111 °C. In addition, in the data set with SW620 Yap KO cells, the IC50 is above 30000 nM. In the data set on YAP-TEAD interaction, this compound returned an IC50 of 100 to 10000 nM. Also, the IC50 with NCI-H226 cells was in the range of 1000 to 10000 nM.

As for `CNC(=O)c1ccc2c(c1)c1nn(C)cc1n2-c1ccc(C(F)(F)F)cc1` [Example 17, N,2-dimethyl-4-[4-(trifluoromethyl)phenyl]pyrazolo [4,3-b]indole-7-carboxamide], the IC50 in the data set with SW620 Yap KO cells was above 30000 nM; with YAP-TEAD interaction, 10 to 100 nM; in the data set with NCI-H226 cells it was 100 to 1000 nM.

The compound `Cn1cc2c3cc(C(=O)NC4CC4)ccc3n(-c3ccc(C(F)(F)F)nc3)c2n1` [Example 27, N-cyclopropyl-2-methyl-8-[6-(trifluoromethyl)pyridin-3-yl]-2H,8H-pyrazolo[3,4-b]indole-5-carboxamide] yielded a melting point of 300 °C. The compound also gave an IC50 in the data set with SW620 Yap KO cells above 30000 nM. Moreover, the half-inhibitory concentration (IC50) in the data set with YAP-TEAD interaction lay in the range of 1 to 10 nM. Further, in the data set on NCI-H226 cells, the IC50 was 1 to 100 nM.

Compound `C=CC(=O)NCc1ccc2c(c1)c1cn(C)nc1n2-c1ccc(C(F)(F)F)cc1` [Example 21, N—([2-methyl-8-[4-(trifluoromethyl)phenyl]pyrazolo [3,4-b]indol-5-yl]methyl)prop-2-enamide] came in with a melting point of 185 to 187 °C. Besides, the half-inhibitory concentration (IC50) in the data set on SW620 Yap KO cells was 10000 to 30000 nM. The IC50 with YAP-TEAD interaction lay within 1 to 10 nM. Besides, the IC50 in the data set on NCI-H226 cells was in the range of 1000 to 10000 nM.

On to `Cn1cc2c3cc(C(=O)O)ccc3n(-c3ccc(OC(F)(F)F)cc3)c2n1` [Example 18, 2-methyl-8-[4-(trifluoromethoxy)phenyl]-2H,8H-pyrazolo[3,4-b]indole-5-carboxylic acid], for which the IC50 was above 30000 nM in the data set with SW620 Yap KO cells, 1 to 10 nM with YAP-TEAD interaction and 100 to 1000 nM with NCI-H226 cells.

Take `CCOc1ccc(-n2c3ccc(C(=O)O)cc3c3cn(C)nc32)cc1` [Example 15, 8-(4-Ethoxyphenyl)-2-methyl-2H,8H-pyrazolo[3,4-b]indole-5-carboxylic acid]: the melting point is 179 to 181 °C. Also, in the data set on SW620 Yap KO cells, the 50% inhibitory concentration (IC50) is above 30000 nM. Moreover, in the data set with YAP-TEAD interaction, the IC50 is 10 to 100 nM. The IC50 with NCI-H226 cells is 100 to 1000 nM.

In the case of `COc1nc(C)cc(CNC(=O)c2ccc3c(c2)c2cn(C)nc2n3-c2ccc(C(F)(F)F)cc2)n1` [B126^], the concentration for half-maximal inhibition (IC50) in the data set with SW620 Yap KO cells is above 30000 nM; with YAP-TEAD interaction, 10 to 100 nM; in the data set with NCI-H226 cells, 1 to 100 nM.

For `Cc1nc2c(s1)c1cc(C(=O)O)ccc1n2-c1ccc(C(F)(F)F)cc1` [Example 25, 2-methyl-4-[4-(trifluoromethyl)phenyl]-[1,3]thiazolo[4,5-b]indole-7-carboxylic acid], the melting point fell in the range of 169 to 171 °C. In the data set with SW620 Yap KO cells, the IC50 was in the range of 1000 to 10000 nM. In the data set with YAP-TEAD interaction, this compound displayed an IC50 of 10 to 100 nM. Also, the IC50 in the data set on NCI-H226 cells fell in the range of 100 to 1000 nM.

Take `COCC(NC(=O)c1ccc2c(c1)c1cn(C)nc1n2-c1ccc(C(F)(F)F)cc1)c1cnn(C)c1` (centres unmarked) [Example B68, N-[2-methoxy-1-(1-methyl-1H-pyrazol-4-yl)ethyl]-2-methyl-8-[4-(trifluoromethyl)phenyl]-2H,8H-pyrazolo[3,4-b]indole-5-carboxamide]: the figures for the IC50 in the data set on SW620 Yap KO cells, in the data set on YAP-TEAD interaction and in the data set with NCI-H226 cells were above 30000 nM, 10 to 100 nM and 100 to 1000 nM, respectively.

`Cn1cc2c3cc(C(=O)O)ccc3n(Cc3ccc(C(F)(F)F)cc3)c2n1` [Example 5, 2-Methyl-8-{[4-(trifluoromethyl)phenyl]methyl}-2H,8H-pyrazolo[3,4-b]indole-5-carboxylic acid]: the values for the IC50 with SW620 Yap KO cells, with YAP-TEAD interaction and in the data set on NCI-H226 cells were above 30000 nM, 10 to 100 nM and 1 to 100 nM, respectively.

`Cn1cc2c3cc(C(=O)O)ccc3n(-c3cccc(C(F)(F)F)c3)c2n1` [Example 6, 2-Methyl-8-[3-(trifluoromethyl)phenyl]-2H,8H-pyrazolo[3,4-b]indole-5-carboxylic acid]: the IC50 with SW620 Yap KO cells is above 30000 nM; in the data set with YAP-TEAD interaction, 10 to 100 nM; with NCI-H226 cells, 100 to 1000 nM.

On to `Cn1cc2c(n1)c1cc(S(N)(=O)=O)ccc1n2-c1ccc(C(F)(F)F)cc1` [Example 34, 2-methyl-4-[4-(trifluoromethyl)phenyl]-2H,4H-pyrazolo[4,3-b]indole-7-sulfonamide], for which the IC50 is above 30000 nM in the data set on SW620 Yap KO cells, 10 to 100 nM with YAP-TEAD interaction and above 10000 nM with NCI-H226 cells.

`C=CC(=O)Nc1ccc2c(c1)c1cn(C)nc1n2-c1ccc(C(F)(F)F)cc1` [Example 20, N-[2-methyl-8-[4-(trifluoromethyl)phenyl]pyrazolo[3,4-b]indol-5-yl]prop-2-enamide] gave a melting point of 223 to 224 °C. In the data set with SW620 Yap KO cells, this compound came in with a half-inhibitory concentration (IC50) of 10000 to 30000 nM. In the data set with YAP-TEAD interaction, this compound had an IC50 of 1 to 10 nM. In addition, in the data set on NCI-H226 cells, the IC50 fell in the range of 100 to 1000 nM.

`Cn1cc2c(n1)c1cc(F)ccc1n2-c1ccc(C(F)(F)F)cc1` [Example 26, 7-fluoro-2-methyl-4-[4-(trifluoromethyl)phenyl]pyrazolo[4,3-b]indole]: the IC50 in the data set on SW620 Yap KO cells was 10000 to 30000 nM; in the data set on YAP-TEAD interaction, 10 to 100 nM; in the data set with NCI-H226 cells it was above 10000 nM.

These data come from patent US20230174538A1, “Tricyclic heterocycles” (Merck Patent GmbH, priority 2020, published 2023).
